# Laboratory results: patent publication US20200190464A1, “NOVEL LAC[…] ANTIVIRAL EFFECT AND COMPOSITION THEREOF” (priority 2017, published 2020)
# Test system: A/CK/ANYANG/MS96 (H9N2)
# Set-up: species or system low-pathogenic avian influenza H9N2 serotype virus
smiles,measurement,value
"CCOC(=O)C1=C[C@@H](OC(CC)CC)[C@H](NC(C)=O)[C@@H](N)C1 [Tamiflu, Oseltamivir phosphate]",HA positive (eggs),0/3
same,HA titer,0
same,antiviral activity (virus detection in sensitized and inoculated eggs),showed antiviral activity
